Assay results reported in patent US12612384B2, “Heterocyclic CYP4A inhibitor compounds and compositions thereof” (MBD CO., LTD., priority 2021, dated 2026).

Each molecule was assayed against T1, CYP4A (Homo sapiens, UniProt Q02928) (assay: CYP4A enzyme assay (luminescence, Luciferin-ME)). Conditions: Compound concentration 5 μM; 50%-70%; read-out: % Inhibition 50%-70%.
T1 construct: purchased; host or cells: bacterial membranes ('bactosome')
T1 sequence (Q02928 5-519): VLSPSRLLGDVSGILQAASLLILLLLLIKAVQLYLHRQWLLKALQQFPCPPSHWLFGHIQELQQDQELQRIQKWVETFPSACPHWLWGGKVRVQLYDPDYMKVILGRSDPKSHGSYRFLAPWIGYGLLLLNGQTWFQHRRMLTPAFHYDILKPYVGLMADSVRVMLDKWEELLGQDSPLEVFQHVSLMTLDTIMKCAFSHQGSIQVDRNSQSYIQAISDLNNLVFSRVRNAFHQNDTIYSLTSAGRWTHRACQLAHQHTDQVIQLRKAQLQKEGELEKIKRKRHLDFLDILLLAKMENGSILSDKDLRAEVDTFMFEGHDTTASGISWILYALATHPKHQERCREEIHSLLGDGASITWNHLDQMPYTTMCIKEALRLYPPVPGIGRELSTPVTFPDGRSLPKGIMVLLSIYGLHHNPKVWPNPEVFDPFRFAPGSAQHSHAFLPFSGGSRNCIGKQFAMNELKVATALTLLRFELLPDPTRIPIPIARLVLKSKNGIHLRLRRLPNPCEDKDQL
Assay type: biochemical
Description: The CYP4A inhibitory activity of the above compounds of the examples was measured. The reagents used in the experiment were commercially available, and were prepared and used when necessary. The device used for measuring activity was SpectraMax of MOLECULAR DEVICES.
CYP4A bactosome and the compounds to be evaluated (5 μM) were each diluted in assay buffer (100 mM KPO4, 0.1% BSA, 1 mM DTT) and mixed in a 384 well plate (white opaque polystyrene nontreated flat-bottom well), and reaction was carried out at room temperature for 15 minutes. To induce CYP4A reaction, 5 mM Luciferin-ME, NADPH Regeneration system (10× sol. A, 20× sol. B in assay buffer, Cat. Number: V865B, Promega) were sequentially added and mixed, and the reaction was carried out at room temperature for 30 minutes. Then, Luciferin Detection reagent was added thereto and reacted at room temperature for 15 minutes to stop the CYP4A reaction and induce a luminescence reaction. Finally, after measuring the luminescence value using a microplate reader, the inhibition of CYP4A activity by the compounds was evaluated by comparing the luminescence value from each well.

| inhibition at 5 µM [%] | SMILES |
| --- | --- |
| 50 to 70 | O=C(C1CCN(Cc2ccc([N+](=O)[O-])cc2)C1)N1CCN(c2ccnc3ccccc23)CC1 (stereo not shown) [Example 153, (1-(4-nitrobenzyl)pyrrolidin-3-yl)(4-(quinolin-4-yl)piperazin-1-yl)methanone] |
| 50 to 70 | COc1ccc(C(=O)N2CCCC(C(=O)N3CCN(c4ccnc5cc(Cl)ccc45)CC3)C2)cc1 (stereo not shown) [Example 88, (4-(7-chloroquinolin-4-yl)piperazin-1-yl)(1-(4-methoxyphenylcarbonyl)piperidin-3-yl)methanone] |
| 50 to 70 | CC(=O)Nc1ccc(C(=O)N2CCCC(C(=O)N3CCN(c4cc(C(F)(F)F)nc5ccccc45)CC3)C2)cc1 (stereo not shown) [Example 95, N-(4-(3-(1-(2-(trifluoromethyl)quinolin-4-yl)piperazine-4-carbonyl)piperidine-1-carbonyl)phenyl)acetamide] |
| 50 to 70 | Cc1cc(N2CCN(C(=O)C3CCCN(S(=O)(=O)c4cccnc4)C3)CC2)c2ccccc2n1 (stereo not shown) [Example 125, (4-(2-methylquinolin-4-yl)piperazin-1-yl)(1-(pyridin-3-ylsulfonyl)piperidin-3-yl)methanone] |

Same assay, conditions: Compound concentration 5 μM; 70%-90%; read-out: % Inhibition 70%-90%

| SMILES | inhibition at 5 µM [%] |
| --- | --- |
| O=C(c1ccncc1)N1CCCC(C(=O)N2CCN(c3ccnc4ccccc34)CC2)C1 (stereo not shown) [Example 115, (1-isonicotinoylpiperidin-3-yl)(4-(quinolin-4-yl)piperazin-1-yl)methanone] | 70 to 90 |
| O=C(C1CCN(S(=O)(=O)c2ccc(C(F)(F)F)cn2)C1)N1CCN(c2ccnc3ccccc23)CC1 (stereo not shown) [Example 41, (4-(quinolin-4-yl)piperazin-1-yl)(1-((5-(trifluoromethyl)pyridin-2-yl)sulfonyl)pyrrolidin-3-yl)methanone] | 70 to 90 |
| CN(C)c1ccc(S(=O)(=O)N2CCCC(C(=O)N3CCN(c4ncnc5ccccc45)CC3)C2)cc1 (stereo not shown) [Example 77] | 70 to 90 |
| O=C(c1ccncc1)N1CCCC(C(=O)N2CCN(c3ccnc4cc(F)ccc34)CC2)C1 (stereo not shown) [Example 109, (4-(7-fluoroquinolin-4-yl)piperazin-1-yl)(1-isonicotinoylpiperidin-3-yl)methanone] | 70 to 90 |
| COc1ccc2c(N3CCN(C(=O)C4CCCN(C(=O)c5ccc(F)cc5)C4)CC3)ccnc2c1 (stereo not shown) [Example 90, (1-(4-fluorobenzoyl)piperidin-3-yl)(4-(7-methoxyquinolin-4-yl)piperazin-1-yl)methanone] | 70 to 90 |

More lines, now with the values ahead:

| inhibition at 5 µM [%] | SMILES |
| --- | --- |
| 70 to 90 | Cn1cnc(S(=O)(=O)N2CC[C@H](C(=O)N3CCN(c4ccnc5cc(F)ccc45)CC3)C2)n1 [Example 139, (S)-(4-(7-fluoroquinolin-4-yl)piperazin-1-yl)(1-((1-methyl-1H-1,2,4-triazol-3-yl)sulfonyl)pyrrolidin-3-yl)methanone] |
| 70 to 90 | O=C([C@H]1CCN(S(=O)(=O)c2ncn[nH]2)C1)N1CCN(c2cc(C(F)(F)F)nc3ccccc23)CC1 [Example 167, (S)-(1-((1H-1,2,4-triazol-5-yl)sulfonyl)pyrrolidin-3-yl)(4-(2-(trifluoromethyl)quinolin-4-yl)piperazin-1-yl)methanone] |
| 70 to 90 | Cc1ccc2c(N3CCN(C(=O)[C@H]4CCN(S(=O)(=O)c5ncn[nH]5)C4)CC3)ccnc2c1 [Example 163, (S)-(1-((1H-1,2,4-triazol-5-yl)sulfonyl)pyrrolidin-3-yl)(4-(7-methylquinolin-4-yl)piperazin-1-yl)methanone] |
| 70 to 90 | O=C([C@H]1CCN(S(=O)(=O)c2ncn[nH]2)C1)N1CCN(c2ccnc3c(F)cccc23)CC1 [Example 138, (S)-(1-((1H-1,2,4-triazol-5-yl)sulfonyl)pyrrolidin-3-yl)(4-(8-fluoroquinolin-4-yl)piperazin-1-yl)methanone] |

Same assay, conditions: Compound concentration 5 μM; Greater than 90%; read-out: % Inhibition Greater than 90%

| SMILES | inhibition at 5 µM [%] |
| --- | --- |
| O=C(C1CCN(S(=O)(=O)c2ccc(-c3ccncc3)cc2)CC1)N1CCN(c2ccnc3cc(F)ccc23)CC1 [Example 57, (4-(7-fluoroquinolin-4-yl)piperazin-1-yl)(1-((4-(pyridin-4-yl)phenyl)sulfonyl)piperidin-4-yl)methanone] | 0 |
| Cn1cncc1S(=O)(=O)N1CCC(C(=O)N2CCN(c3ccnc4cc(F)ccc34)CC2)C1 (stereo not shown) [Example 14, (4-(7-fluoroquinolin-4-yl)piperazin-1-yl)(1-((1-methyl-1H-imidazol-5-yl)sulfonyl)pyrrolidin-3-yl)methanone] | > 90 |
| O=C(C1CCN(S(=O)(=O)c2ccc(-c3ccc(O)nc3)cc2)C1)N1CCN(c2ccnc3ccccc23)CC1 (stereo not shown) [Example 34, (1-((4-(6-hydroxypyridin-3-yl)phenyl)sulfonyl)pyrrolidin-3-yl)(4-(quinolin-4-yl)piperazin-1-yl)methanone] | > 90 |
| O=C(C1CCN(S(=O)(=O)c2ccc(O)cc2)C1)N1CCN(c2ccnc3cc(F)ccc23)CC1 (stereo not shown) [Example 4, (4-(7-fluoroquinolin-4-yl)piperazin-1-yl)(1-((4-hydroxyphenyl)sulfonyl)pyrrolidin-3-yl)methanone] | > 90 |
| O=C([C@@H]1CCN(S(=O)(=O)c2ccc(-c3ccncc3)cc2)C1)N1CCN(c2ccnc3cc(F)ccc23)CC1 [Example 18, (R)-(4-(7-fluoroquinolin-4-yl)piperazin-1-yl)(1-((4-(pyridin-4-yl)phenyl)sulfonyl)pyrrolidin-3-yl)methanone] | > 90 |
| O=C(C1CCN(S(=O)(=O)c2ccc(-c3ccccc3)nc2)C1)N1CCN(c2ccnc3ccccc23)CC1 (stereo not shown) [Example 25, (1-((6-phenylpyridin-3-yl)sulfonyl)pyrrolidin-3-yl)(4-(quinolin-4-yl)piperazin-1-yl)methanone] | > 90 |

Second part, the molecule after the results:

| inhibition at 5 µM [%] | SMILES |
| --- | --- |
| > 90 | CC(C)(C)c1n[nH]c(S(=O)(=O)N2CCC(C(=O)N3CCN(c4ccnc5cc(F)ccc45)CC3)C2)n1 (stereo not shown) [Example 20, (1-((5-(tert-butyl)-4H-1,2,4-triazol-3-yl)sulfonyl)pyrrolidin-3-yl)(4-(7-fluoroquinolin-4-yl)piperazin-1-yl)methanone] |
| > 90 | O=C(C1CCN(S(=O)(=O)c2ncc[nH]2)C1)N1CCN(c2ccnc3cc(F)ccc23)CC1 (stereo not shown) [Example 13, (1-((1H-imidazol-2-yl)sulfonyl)pyrrolidin-3-yl)(4-(7-fluoroquinolin-4-yl)piperazin-1-yl)methanone] |
| > 90 | Cc1nn(C)c(C)c1S(=O)(=O)N1CCC(C(=O)N2CCN(c3ccnc4ccccc34)CC2)C1 (stereo not shown) [Example 38, (4-(quinolin-4-yl)piperazin-1-yl)(1-((1,3,5-trimethyl-1H-pyrazol-4-yl)sulfonyl)pyrrolidin-3-yl)methanone] |
| > 90 | O=C([C@H]1CCN(S(=O)(=O)c2ccccn2)C1)N1CCN(c2ccnc3cc(F)ccc23)CC1 [Example 157, (S)-(4-(7-fluoroquinolin-4-yl)piperazin-1-yl)(1-(pyridin-2-ylsulfonyl)pyrrolidin-3-yl)methanone] |
| > 90 | O=C([C@H]1CCN(S(=O)(=O)c2ncc[nH]2)C1)N1CCN(c2ccnc3cc(F)c(F)cc23)CC1 [Example 169, (S)-(1-((1H-imidazol-2-yl)sulfonyl)pyrrolidin-3-yl)(4-(6,7-difluoroquinolin-4-yl)piperazin-1-yl)methanone] |
| > 90 | O=C(C1CCN(S(=O)(=O)c2ncn[nH]2)C1)N1CCN(c2ccnc3ccccc23)CC1 (stereo not shown) [Example 43, (1-((1H-1,2,4-triazol-5-yl)sulfonyl)pyrrolidin-3-yl)(4-(quinolin-4-yl)piperazin-1-yl)methanone] |
